Data published in patent US20080300298A1, “Honokiol Derivates For the Treatment of Proliferative Disorders” (priority 2005, published 2008).

Assays:
[1] = test system: SHSY5Y and SHEP neuroblastoma cells; experiment: cancer cell viability, TSA in combination with honokiol; type: cell-based; details: 0-1 uM TSA alone or in combination with honokiol
Description: In FIG. 43, the effects on cancer cell viability after treatment with trichostatin A (TSA), a histone deacetylase inhibitor, in combination with honokiol were examined.

PARP in KBM-5 cells = experiment: PARP cleavage assay; type: cell-based, human; details: KBM-5, TNF 1 nM with honokiol (25 mM printed)
Protocol: (D) depicts that honokiol enhances TNF-induced cell death.
PARP cleavage assay. For detection of cleavage products of PARP, whole-cell extracts were prepared by subjecting honokiol-treated cells to lysis in lysis buffer (20 mM Tris, pH 7.4; 250 mM NaCl; 2 mM EDTA, pH 8.0; 0.1% TritonX-100; 0.01 mg/ml aprotinin; 0.005 mg/ml leupeptin; 0.4 mM PMSF; and 4 mM NaVO4). Lysates were spun at 14000 rpm for 10 min to remove insoluble material, resolved by 10% SDS PAGE, and probed with PARP antibodies.
By using caspase-activated PARP cleavage, it was shown that the enhanced cytotoxicity was due to apoptosis. TNF-induced PARP cleavage was enhanced in the honokiol-treated cells (FIG. 26C).

normal PBMNCs = experiment: APO2.7 staining; type: cell-based, human; details: 15 ug/ml, 48 h, n=3
Protocol: (§1) Assessment of HNK-induced cytotoxicity against patient MM cells: […] A CD38^high fraction enriched for MM cells was determined in side and forward scatter panel in each case. The expression of CD138 on gated cells was also evaluated. After HNK-treatment for 48 h, cells were harvested and percentage of CD38^high cells with or without HNK-treatment was evaluated. Cell cycle analysis: MM cells cultured with HNK were harvested, fixed with 70% ethanol, and pretreated with 250 μg/mL of RNAse (Sigma, St Louis, Mo.). Cells were stained with propidium iodide (PI; 50 μg/mL; Sigma, St Louis, Mo.), and cell cycle profile was determined by using the program M software on an EPICS XL flow cytometer (Beckman Coulter, Hialeah, Fla.). Detection of apoptosis and caspase-3 activity: TdT-mediated d-UTP nick end labeling (TUNEL) assay (MBL, Nagoya, Japan) and APO 2.7 staining (Immunotech, Marseille, France) were used to determine apoptosis. In brief, cells were fixed and permeabilzed by 4% paraformaldehyde and 70% ethanol, respectively, and incubated with a mixture of FITC-dUTP and TdT for 1 h at 37° C. for TUNEL assay. For detection of mitochondrial membrane protein 7A6 expression on apoptotic cells, cells were incubated with APO 2.7 reagent for 20 minutes. Fluorescence intensity of TUNEL and APO 2.7 staining was determined using on EPICS XL flow cytometer. Cytotoxicity was determined by trypan blue exclusion assay. […] Cell growth and induction of apoptosis were determined both by colorimetric assay and now cytometric detection of APO2.7 after 48 h treatment. […] Proliferation of MM cells was then assessed by [^3H]-thymidine uptake. […] DNA synthesis was measured by [^3H]-thymidine uptake. […] Angiogenesis assay: The anti-angiogenic effect of HNK was determined using an In Vitro Angiogenesis Assay Kit (Chemicon, Temecula, Calif.). […] After 6 h, tube formation by endothelial cells was evaluated. Direct toxicity of HNK against HUVEC was determined by calorimetric assay. […]

RPM18226 cells = experiment: APO2.7 staining; type: cell-based, human; details: RPM18226, 10 ug/ml, 24 h
Protocol: as §1

MM.1S cells = experiment: APO2.7 staining; type: cell-based, human; details: 10 ug/ml, 24 h
Protocol: as §1

SVR cells = experiment: apoptosis of SVR cells; type: cell-based; details: 18 and 48 h
Protocol: FIG. 13 illustrates the effect of honokiol and magnolol on apoptosis. The light columns represent SVR cells treated with magnolol, and the dark columns represent SVR cells treated with honokiol. The control lanes represent cells immediately after treatment compared with 18 and 48 h of treatment.

rat papillary muscles = experiment: glucose uptake by insulin

C=CCc1ccc(O)c(-c2ccc(O)c(CC=C)c2)c1 [HNK, Honokiol]
percent of viable cells, combination with TSA compared with TSA alone [1]: significant decrease in the percent of viable cells
TNF-induced PARP cleavage (PARP in KBM-5 cells): enhanced
APO2.7 positive cells in normal PBMNCs (normal PBMNCs): did not induce APO2.7 positive cells
APO2.7 positive cells (RPM18226 cells): 32.9±0.6%
APO2.7 positive cells (MM.1S cells): 21.7±3.4%
induction of apoptosis compared with magnolol (SVR cells): more effective in the induction of apoptosis than magnolol
glucose uptake by insulin (rat papillary muscles): potentiates glucose uptake by insulin
